Data taken from patent EP2952497A1, “Method for neutralizing detrimental effects of thiolbearing compounds on metal catalysts” (Universität Basel, priority 2014, dated 2015).

Assays:
[1] = screening of GSH neutralizing agents in GSH-spiked solutions before imine reduction; format: biochemical; conditions: for compatibility with the catalytic systems: solutions with or without Sav isoform, with or without 2.5 mmol/l GSH; for efficacy as GSH neutralizing agent: solutions spiked with 2.5 mmol/l GSH, incubated with agent before adding Ir-catalyst, reaction 2 days
Protocol: Michael acceptors and oxidizing agents known to react with GSH were selected to yield the corresponding thioether and disulfide, respectively. The following Michael acceptors were tested: maleinimide (Malln), 2-bromo-1-phenylethanone (BrPheOne), phenyl-vinylsulfone (PheViSul) and 3-Phenyl-2-propynenitrile (PhePropNit). The following oxidizing agents were selected: oxone (Ox), 1,4-benzoquinone (BQ), K3[Fe(CN)6] Fe^3+, and diamide (DiAm) (figure 2). For this purpose, solutions either with or without a Sav isoform were spiked with 2.5 mmol/l GSH and incubated overnight in presence of different concentrations of a particular GSH neutralizing agent before adding the Ir-catalyst. The reactions were initiated by addition of the imine substrate and run for 2 days (see Table 2).
An equimolar amount has no benefit on the reaction whereas four equivalents led to a decrease in conversion and enantioselectivity in the case of the S112K mutant. • 4) Despite the fact that H2O2 is commonly used to oxidize GSH, Ox was favoured for this purpose. […] Increasing the concentration of the GSH neutralizing agents leads to less consistent results. The outcome of the reaction depends on the Sav-mutant (if any) is used. […] A similar behaviour is observed with BrPheOne when no Sav or the S112K mutant was present.

[2] = test system: living cells, including E. coli; conditions: cited from earlier work
[3] = test system: [Cp*Ir(biot-p-L)Cl] c S112K Sav (streptavidin variant S112K, SEQ ID NO 2); conditions: 2.5 mM GSH; substrate 10 mM; purified Sav; RT, 48 h
Protocol: (§1) Initial experiments were performed using 50 µmol/l [Cp*Ir(biot-p-L)Cl], 100 µmol/l biotin binding sites (i.e. 25 µmol/l tetrameric Sav), 1 M HCO2Na in MOPS buffer ([…], pH 7) (see scheme 1). For comparison purposes, the imine reduction was performed with [Cp*Ir(biot-p-L)Cl]; [Cp*Ir(biot-p-L)Cl] c S112A Sav and [Cp*Ir(biot-p-L)Cl] c S112K Sav, cf. scheme 1.
(§2) Without wishing to be bound by theory, the inventors speculate that oxidizing GSH or derivatizing its thiol function could -at least partially- prevent inhibition of the hybrid catalysts.

[4] = test system: [Cp*Ir(biot-p-L)Cl] c S112A Sav (streptavidin variant S112A, SEQ ID NO 1); conditions: 2.5 mM GSH; substrate 10 mM; purified Sav; RT, 48 h
Protocol: as §1, §2

[5] = test system: [Cp*Ir(biot-p-L)Cl] c S112K Sav ATHase (streptavidin variant S112K, SEQ ID NO 2); conditions: substrate not given, taken as the imine (salsolidine precursor); cited from earlier work
[6] = test system: [Cp*Ir(biot-p-L)Cl] c S112A Sav ATHase (streptavidin variant S112A, SEQ ID NO 1); conditions: substrate not given, taken as the imine (salsolidine precursor); cited from earlier work

## O=C1C=CC(=O)C=C1 [BQ, 1,4-benzoquinone]
[1]
  compatibility with the catalytic systems: not compatible with any of the three catalytic systems

## O=C(CBr)c1ccccc1 [BrPheOne, 2-bromo-1-phenylethanone]
[1]
  efficacy as GSH neutralizing agent: most effective GSH neutralizing agents

## CN(C)C(=O)/N=N/C(=O)N(C)C [DiAm, diamide]
[2]
  compatibility with living cells: causing neither lysis nor death
[1]
  efficacy as GSH neutralizing agent: most effective GSH neutralizing agents
  compatibility with the catalytic systems: fully compatible with the artificial metalloenzymes

## N[C@@H](CCC(=O)N[C@@H](CS)C(=O)NCC(=O)O)C(=O)O [GSH, glutathione]
[3]
  inhibition of reduction of the salsolidine precursor: no activity
[4]
  inhibition of reduction of the salsolidine precursor: no activity

## O=C1C=CC(=O)N1 [Malln, maleinimide]
[1]
  compatibility with the catalytic systems: limited compatibility

## N#CC#Cc1ccccc1 [PhePropNit, 3-Phenyl-2-propynenitrile]
[1]
  efficacy as GSH neutralizing agent: most effective when applied at a ratio PhePropNit/GSH 2:1

## C=CS(=O)(=O)c1ccccc1 [PheViSul, phenyl-vinylsulfone]
[1]
  efficacy as GSH neutralizing agent: most effective GSH neutralizing agents
  compatibility with the catalytic systems: does not affect the free Ir-complex

## COc1cc2c(cc1OC)C(C)=NCC2 [salsolidine precursor, 1-methyl-6,7-dimethoxy-3,4-dihydroisoquinoline]
[5]
  kcat: 0.0433 s⁻¹
[6]
  kcat: 0.19 s⁻¹

## oxone
[1]
  efficacy as GSH neutralizing agent: efficacy is most pronounced with four equivalents vs. GSH
